Assay results: ChEMBL document CHEMBL4138253, “Synthesis and Biological Evaluation of a Series of Bile Acid Derivatives as FXR Agonists for Treatment of NASH” (ACS Med Chem Lett, 2017)

Tests used:
[1] = Drug metabolism in C57BL/6 mouse assessed as ratio of INT-747 level in liver to plasma at 10 mg/kg, po administered as single dose via gavage measured at 0.5 hrs post dose by LC-MS/MS analysis; assay type: ADME, organism-based; details: other tissue
[2] = Drug metabolism in C57BL/6 mouse liver assessed as INT-747 level at 10 mg/kg, po administered as single dose via gavage measured at 0.5 hrs post dose by LC-MS/MS analysis; assay type: ADME, organism-based; details: in vivo
Mus musculus [3] = assay: Tmax in C57BL/6 mouse assessed as tauro-INT-747 level at 10 mg/kg, po administered via gavage; assay type: ADME, organism-based; details: in vivo
Mus musculus [4] = assay: AUC in C57BL/6 mouse assessed as INT-747 level at 10 mg/kg, po administered via gavage; assay type: ADME, organism-based; details: in vivo
[5] = Drug level in C57BL/6 mouse liver at 10 mg/kg, po administered as single dose via gavage measured at 3 hrs post dose by LC-MS/MS analysis; assay type: ADME, organism-based; details: in vivo
[6] = Drug metabolism in C57BL/6 mouse assessed as ratio of INT-747 level in liver to plasma at 10 mg/kg, po administered as single dose via gavage measured at 3 hrs post dose by LC-MS/MS analysis; assay type: ADME, organism-based; details: other tissue
[7] = Drug level in C57BL/6 mouse liver at 10 mg/kg, po administered as single dose via gavage measured at 0.5 hrs post dose by LC-MS/MS analysis; assay type: ADME, organism-based; details: in vivo
[8] = Ratio of drug level in C57BL/6 mouse liver to plasma at 10 mg/kg, po administered as single dose via gavage measured at 3 hrs post dose by LC-MS/MS analysis; assay type: ADME, organism-based
[9] = Ratio of drug level in liver to plasma in C57BL/6 mouse at 2 mg/kg, po administered as single cassette dose via gavage measured at 3 hrs post dose; assay type: ADME, organism-based
Mus musculus [10] = assay: Anti-hepatic steatosis activity in HFD/CCl4-induced non-alcoholic hepatic steatosis C57BL/6 mouse model assessed as reduction in hepatic steatosis score administered once daily via oral gavage for 28 days measured at post last dose by hematoxylin-eosin staining based assay; assay type: ADME, organism-based; details: in vivo, 672 h
Mus musculus [11] = assay: Anti-hepatic steatosis activity in HFD/CCl4-induced non-alcoholic hepatic steatosis C57BL/6 mouse model assessed as reduction in triglyceride level administered once daily via oral gavage for 28 days measured at post last dose by […] assay; assay type: ADME, organism-based; details: in vivo, 672 h
[12] = Drug metabolism in C57BL/6 mouse liver assessed as INT-747 level at 10 mg/kg, po administered as single dose via gavage measured at 3 hrs post dose by LC-MS/MS analysis; assay type: ADME, organism-based; details: in vivo
Mus musculus [13] = assay: AUC in C57BL/6 mouse assessed as tauro-INT-747 level at 10 mg/kg, po administered via gavage; assay type: ADME, organism-based; details: in vivo
Mus musculus [14] = assay: Cmax in C57BL/6 mouse assessed as tauro-INT-747 level at 10 mg/kg, po administered via gavage; assay type: ADME, organism-based; set-up: dose 10 mg/kg, route oral; details: in vivo
[15] = Drug metabolism in C57BL/6 mouse plasma assessed as INT-747 level at 10 mg/kg, po administered as single dose via gavage measured at 3 hrs post dose by LC-MS/MS analysis; assay type: ADME, organism-based; details: in vivo
[16] = Drug level in C57BL/6 mouse plasma at 10 mg/kg, po administered as single dose via gavage measured at 3 hrs post dose by LC-MS/MS analysis; assay type: ADME, organism-based
[17] = Drug level in C57BL/6 mouse plasma at 10 mg/kg, po administered as single dose via gavage measured at 0.5 hrs post dose by LC-MS/MS analysis; assay type: ADME, organism-based
[18] = Tmax in C57BL/6 mouse at 10 mg/kg, po administered via gavage; assay type: ADME, organism-based; details: in vivo
Mus musculus [19] = assay: Anti-hepatic steatosis activity in HFD/CCl4-induced non-alcoholic hepatic steatosis C57BL/6 mouse model assessed as reduction in liver fibrosis administered once daily via oral gavage for 28 days measured at post last dose by sirus red staining based assay; assay type: ADME, organism-based; details: in vivo, 672 h
Bile acid receptor [20] = target: T1, Bile acid receptor (Homo sapiens, UniProt Q96RI1); assay: Agonist activity at recombinant human Gal4-fused FXR expressed in CHO cells measured after 22 hrs by luciferase reporter gene assay; assay type: cell-based
T1 sequence (Q96RI1 whole entry): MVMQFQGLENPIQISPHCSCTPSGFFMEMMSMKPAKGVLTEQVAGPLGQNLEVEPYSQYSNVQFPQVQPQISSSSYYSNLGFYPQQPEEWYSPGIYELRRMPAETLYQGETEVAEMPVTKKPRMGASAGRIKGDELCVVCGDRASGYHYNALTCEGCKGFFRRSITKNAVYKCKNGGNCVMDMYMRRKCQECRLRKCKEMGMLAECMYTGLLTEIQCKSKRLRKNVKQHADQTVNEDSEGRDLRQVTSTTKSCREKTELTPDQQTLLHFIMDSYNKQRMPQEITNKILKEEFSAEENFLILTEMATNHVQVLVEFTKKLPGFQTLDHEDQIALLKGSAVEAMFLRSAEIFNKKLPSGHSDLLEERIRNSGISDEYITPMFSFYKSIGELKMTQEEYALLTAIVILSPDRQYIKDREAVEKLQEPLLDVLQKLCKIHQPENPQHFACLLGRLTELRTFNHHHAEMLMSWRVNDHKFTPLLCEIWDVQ

Mus musculus [21] = assay: Cmax in C57BL/6 mouse assessed as INT-747 level at 10 mg/kg, po administered via gavage; assay type: ADME, organism-based; set-up: dose 10 mg/kg, route oral; details: in vivo
[22] = Drug level in C57BL/6 mouse plasma at 2 mg/kg, po administered as single cassette dose via gavage measured at 3 hrs post dose by LC-MS/MS analysis; assay type: ADME, organism-based
Homo sapiens = organism: Homo sapiens; assay: Selectivity ratio of EC50 for recombinant human GST-tagged FXR LBD (193 to 472 residues) expressed in baculovirus-infected insect cells to EC50 for human TGR5 expressed in HEK293 cells
[23] = Drug level in C57BL/6 mouse liver at 2 mg/kg, po administered as single cassette dose via gavage measured at 0.5 hrs post dose by LC-MS/MS analysis; assay type: ADME, organism-based; details: in vivo
[24] = Ratio of drug level in C57BL/6 mouse liver to plasma at 10 mg/kg, po administered as single dose via gavage measured at 0.5 hrs post dose by LC-MS/MS analysis; assay type: ADME, organism-based
[25] = Ratio of drug level in liver to plasma in C57BL/6 mouse at 2 mg/kg, po administered as single cassette dose via gavage measured at 0.5 hrs post dose; assay type: ADME, organism-based
Mus musculus [26] = assay: Cmax in C57BL/6 mouse assessed as glyco-INT-747 level at 10 mg/kg, po administered via gavage; assay type: ADME, organism-based; set-up: dose 10 mg/kg, route oral; details: in vivo, BLD = below limit of detection
[27] = target: T2, Bile acid receptor (Homo sapiens) (UniProt Q96RI1); assay: Agonist activity at recombinant human Gal4-fused FXR expressed in CHO cells measured after 22 hrs by luciferase reporter gene assay relative to CDCA; assay type: cell-based
T2 sequence (whole entry): T1 sequence (Q96RI1 whole entry)

Mus musculus [28] = assay: AUC in C57BL/6 mouse assessed as glyco-INT-747 level at 10 mg/kg, po administered via gavage; assay type: ADME, organism-based; details: in vivo, BLD = below limit of detection
Mus musculus [29] = assay: Tmax in C57BL/6 mouse assessed as INT-747 level at 10 mg/kg, po administered via gavage; assay type: ADME, organism-based; details: in vivo
[30] = Drug level in C57BL/6 mouse liver at 2 mg/kg, po administered as single cassette dose via gavage measured at 3 hrs post dose by LC-MS/MS analysis; assay type: ADME, organism-based; details: in vivo
[31] = target: T3, G-protein coupled bile acid receptor 1 (Homo sapiens, UniProt Q8TDU6); assay: Agonist activity at human TGR5 expressed in HEK293 cells assessed as increase in intracellular cAMP level after 1 hr by TR-FRET assay; assay type: functional, cell-based
T3 sequence (Q8TDU6 whole entry): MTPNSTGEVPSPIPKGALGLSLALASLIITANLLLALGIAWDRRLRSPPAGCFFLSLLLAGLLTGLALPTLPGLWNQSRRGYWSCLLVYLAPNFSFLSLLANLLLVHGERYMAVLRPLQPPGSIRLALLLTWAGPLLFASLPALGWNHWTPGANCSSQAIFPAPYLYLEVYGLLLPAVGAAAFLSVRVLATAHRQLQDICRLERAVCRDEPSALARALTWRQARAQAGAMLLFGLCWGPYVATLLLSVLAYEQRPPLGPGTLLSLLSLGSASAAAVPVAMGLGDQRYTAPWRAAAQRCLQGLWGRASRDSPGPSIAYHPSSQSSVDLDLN

[32] = Cmax in C57BL/6 mouse at 10 mg/kg, po administered via gavage; assay type: ADME, organism-based; set-up: dose 10 mg/kg, route oral; details: in vivo
[33] = Drug level in C57BL/6 mouse plasma at 2 mg/kg, po administered as single dose via gavage measured at 0.5 hrs post dose by LC-MS/MS analysis; assay type: ADME, organism-based
[34] = AUC in C57BL/6 mouse at 10 mg/kg, po administered via gavage; assay type: ADME, organism-based; details: in vivo
Bile acid receptor [35] = target: T1, Bile acid receptor; assay: (§1) Agonist activity at human FXR assessed as recruitment of SRC1 peptide by TR-FRET assay
[36] = target: T2, Bile acid receptor (Homo sapiens); assay: as §1

CC[C@H]1[C@@H](O)[C@@H]2[C@H](CC[C@]3(C)[C@@H]([C@H](C)CCC(=O)NS(C)(=O)=O)CC[C@@H]23)[C@@]2(C)CC[C@@H](O)C[C@@H]12
Ratio [1]: 21
Drug uptake [2]: 2863 nmol/kg
Tmax (Mus musculus [3]): 8 h
AUC (Mus musculus [4]): 216 nM·h
Drug uptake [5]: 15560 nmol/kg
Ratio [6]: 12
Drug uptake [7]: 27920 nmol/kg
Kp at 3 h [8]: 52
Kp at 3 h [9]: 124
Activity (Mus musculus [10]): Dose-dependent effect
Activity (Mus musculus [11]): Dose-dependent effect
Drug uptake [12]: 1486 nmol/kg
AUC (Mus musculus [13]): 5.416 µM·h
Cmax (Mus musculus [14]): 270 nM
concentration [15]: 126 nM
concentration at 3 h [16]: 298 nM
concentration at 0.5 h [17]: 388 nM
Tmax [18]: 30 min
Activity (Mus musculus [19]): Dose-dependent effect
EC50 (Bile acid receptor [20]): 50 nM
Cmax (Mus musculus [21]): 446 nM
concentration at 3 h [22]: 15 nM
Ratio EC50 (Homo sapiens): 14
Drug uptake [23]: 7183 nmol/kg
Kp at 0.5 h [24]: 53
Kp at 0.5 h [25]: 53
Cmax (Mus musculus [26]): Bld
Efficacy [27]: 191%
AUC (Mus musculus [28]): Bld
Tmax (Mus musculus [29]): 30 min
Drug uptake [30]: 1361 nmol/kg
EC50 [31]: 700 nM
Cmax [32]: 610 nM
concentration at 0.5 h [33]: 136 nM
AUC [34]: 1.19 µM·h

C[C@H](CCn1oc(=O)[nH]c1=O)[C@H]1CC[C@H]2[C@@H]3[C@H](O)C[C@@H]4C[C@H](O)CC[C@]4(C)[C@H]3CC[C@]12C
EC50 (Bile acid receptor [35]): 1220 nM
Efficacy [36]: 111%
